Data taken from ChEMBL document CHEMBL3885861, “Open TG-GATES”.

Species: Rattus norvegicus
Test: Open TG-GATES - Regimen: Daily Repeat
Assay type: toxicity, organism-based, Sprague-Dawley
Design: regimen Daily Repeat, gender Male, age 6 weeks
Details: in vivo, iv, route intravenous injection; for APTT / Bas / Eos / Fbg / Hb / Ht / Lym / MCHC / MCV / Mono / Neu / PT / Plat / RBC / Ret / WBC / MCH: tissue Blood; for KIDNEY_L / KIDNEY_R / KIDNEY_TOTAL: tissue Kidney; for LIVER: tissue Liver
[1] = 0 mg/kg, 72 h, dose level Control, time 3 day
[2] = 0 mg/kg, 72 h, tissue Plasma, dose level Control, time 3 day
[3] = 0 mg/kg, […], dose level Control, time 7 day
[4] = 0 mg/kg, […], dose level Control, time 14 day
[5] = 0 mg/kg, […], dose level Control, time 28 day
[6] = 0 mg/kg, […], tissue Plasma, dose level Control, time 7 day
[7] = 0 mg/kg, […], tissue Plasma, dose level Control, time 14 day
[8] = 0 mg/kg, […], tissue Plasma, dose level Control, time 28 day
[9] = 1 mg/kg, 72 h, dose level Low, time 3 day
[10] = 1 mg/kg, 72 h, tissue Plasma, dose level Low, time 3 day
[11] = 1 mg/kg, […], dose level Low, time 7 day
[12] = 1 mg/kg, […], dose level Low, time 14 day
[13] = 1 mg/kg, […], dose level Low, time 28 day
[14] = 1 mg/kg, […], tissue Plasma, dose level Low, time 7 day
[15] = 1 mg/kg, […], tissue Plasma, dose level Low, time 14 day
[16] = 1 mg/kg, […], tissue Plasma, dose level Low, time 28 day

**Q.** What does the source list for CARBOPLATIN?
**A.** TERMINAL_BW [1]: 221.4 g; APTT [1]: 23.3 s; Bas [1]: 0%; Eos [1]: 0.8%; Fbg [1]: 298.8 mg/dL; Hb [1]: 13 g/dL; Ht [1]: 40.2%; Lym [1]: 80.4%; MCHC [1]: 32.2%; MCV [1]: 63.6 fL; Mono [1]: 2.6%; Neu [1]: 15.4%; PT [1]: 16.2 s; Plat [1]: 127.8 x10_4/uL; RBC [1]: 633 x10_4/ul; Ret [1]: 5.4%; WBC [1]: 112.5 x10_2/uL; KIDNEY_L [1]: 1 g; KIDNEY_R [1]: 1 g; KIDNEY_TOTAL [1]: 2 g; ALP [2]: 1505 IU/L; ALT [2]: 38.6 IU/L; AST [2]: 67.6 IU/L; BUN [2]: 18 mg/dL; CRE [2]: 0.2 mg/dL; DBIL [2]: 0 mg/dL; GLC [2]: 182.4 mg/dL; IP [2]: 7.3 mg/dL; K [2]: 4.6 meq/L; LDH [2]: 206.4 IU/L; PL [2]: 150 mg/dL; RALB [2]: 3 g/dL; TBIL [2]: 0.004 mg/dL; TC [2]: 78.2 mg/dL; TG [2]: 103 mg/dL; TP [2]: 5.4 g/dL; gamma-GTP [2]: 1.6 IU/L; TERMINAL_BW [3]: 254.4 g; TERMINAL_BW [4]: 298 g; TERMINAL_BW [5]: 364.6 g; APTT [3]: 23.5 s; Bas [3]: 0%; Eos [3]: 0.8%; Fbg [3]: 312.2 mg/dL; Ht [3]: 40.5%; Lym [3]: 81.4%; MCH [3]: 20.6 pg; MCHC [3]: 32.4%; MCV [3]: 63.6 fL; Mono [3]: 2.4%; Plat [3]: 123.2 x10_4/uL; RBC [3]: 638.2 x10_4/ul; Ret [3]: 4.9%; WBC [3]: 120.2 x10_2/uL; APTT [4]: 25.2 s; Bas [4]: 0%; Eos [4]: 1%; Fbg [4]: 296.8 mg/dL; Hb [4]: 13.6 g/dL; Ht [4]: 40.5%; Lym [4]: 80.8%; MCHC [4]: 33.6%; MCV [4]: 60.3 fL; Mono [4]: 3.4%; Plat [4]: 128.4 x10_4/uL; RBC [4]: 672.4 x10_4/ul; Ret [4]: 3.6%; WBC [4]: 136.2 x10_2/uL; APTT [5]: 24.2 s; Bas [5]: 0%; Eos [5]: 1%; Fbg [5]: 308.6 mg/dL; Ht [5]: 42.1%; Lym [5]: 82.2%; MCH [5]: 19.9 pg; MCV [5]: 56.5 fL; Mono [5]: 2.6%; PT [5]: 16 s; Plat [5]: 108.9 x10_4/uL; RBC [5]: 746.2 x10_4/ul; Ret [5]: 2.1%; WBC [5]: 150.1 x10_2/uL; KIDNEY_L [3]: 1.1 g; KIDNEY_R [3]: 1.2 g; KIDNEY_TOTAL [3]: 2.3 g; KIDNEY_L [4]: 1.2 g; KIDNEY_R [4]: 1.2 g; KIDNEY_TOTAL [4]: 2.4 g; KIDNEY_L [5]: 1.3 g; KIDNEY_R [5]: 1.3 g; KIDNEY_TOTAL [5]: 2.7 g; LIVER [4]: 13.1 g; LIVER [5]: 14.9 g; ALP [6]: 1596.2 IU/L; ALT [6]: 39 IU/L; AST [6]: 70.6 IU/L; BUN [6]: 17.6 mg/dL; CRE [6]: 0.2 mg/dL; DBIL [6]: 0 mg/dL; GLC [6]: 182.6 mg/dL; IP [6]: 7.8 mg/dL; K [6]: 4.7 meq/L; LDH [6]: 172.8 IU/L; PL [6]: 144 mg/dL; RALB [6]: 3.1 g/dL; TBIL [6]: 0.002 mg/dL; TC [6]: 74.6 mg/dL; TG [6]: 87.8 mg/dL; TP [6]: 5.6 g/dL; gamma-GTP [6]: 2.2 IU/L; ALP [7]: 1124 IU/L; ALT [7]: 38.2 IU/L; AST [7]: 68.8 IU/L; BUN [7]: 17.2 mg/dL; CRE [7]: 0.2 mg/dL; DBIL [7]: 0 mg/dL; GLC [7]: 203 mg/dL; IP [7]: 6.9 mg/dL; K [7]: 4.3 meq/L; LDH [7]: 155.6 IU/L; Na [7]: 140.4 meq/L; PL [7]: 146 mg/dL; RALB [7]: 3 g/dL; TBIL [7]: 0.008 mg/dL; TC [7]: 73.8 mg/dL; TG [7]: 110.8 mg/dL; TP [7]: 5.7 g/dL; gamma-GTP [7]: 3.6 IU/L; ALP [8]: 1264.8 IU/L; ALT [8]: 43 IU/L; AST [8]: 76.2 IU/L; BUN [8]: 17.6 mg/dL; CRE [8]: 0.2 mg/dL; DBIL [8]: 0.002 mg/dL; IP [8]: 7.1 mg/dL; K [8]: 4.3 meq/L; LDH [8]: 202 IU/L; PL [8]: 138.6 mg/dL; RALB [8]: 3 g/dL; TBIL [8]: 0.01 mg/dL; TC [8]: 67.2 mg/dL; TG [8]: 113 mg/dL; TP [8]: 6 g/dL; gamma-GTP [8]: 2.2 IU/L; TERMINAL_BW [9]: 215.8 g; APTT [9]: 23.9 s; Bas [9]: 0%; Eos [9]: 0.8%; Fbg [9]: 317.8 mg/dL; Hb [9]: 13 g/dL; Lym [9]: 83%; MCHC [9]: 32.2%; Mono [9]: 2.8%; Neu [9]: 12.6%; PT [9]: 16.2 s; Plat [9]: 122.5 x10_4/uL; RBC [9]: 647.8 x10_4/ul; Ret [9]: 4.5%; WBC [9]: 100.1 x10_2/uL; KIDNEY_L [9]: 0.9 g; KIDNEY_R [9]: 0.9 g; KIDNEY_TOTAL [9]: 1.9 g; LIVER [9]: 9.5 g; ALP [10]: 1749.2 IU/L; ALT [10]: 44.2 IU/L; AST [10]: 72.8 IU/L; BUN [10]: 16.6 mg/dL; CRE [10]: 0.2 mg/dL; DBIL [10]: 0 mg/dL; GLC [10]: 175.8 mg/dL; IP [10]: 6.9 mg/dL; K [10]: 4.6 meq/L; LDH [10]: 189.6 IU/L; PL [10]: 147.8 mg/dL; RALB [10]: 3.1 g/dL; TBIL [10]: 0.004 mg/dL; TC [10]: 76.2 mg/dL; TG [10]: 106.8 mg/dL; TP [10]: 5.5 g/dL; gamma-GTP [10]: 1.4 IU/L; TERMINAL_BW [11]: 248.6 g; TERMINAL_BW [12]: 299.2 g; TERMINAL_BW [13]: 348.7 g; APTT [11]: 22.2 s; Bas [11]: 0%; Eos [11]: 1%; Fbg [11]: 304 mg/dL; Ht [11]: 40.7%; Lym [11]: 80.8%; MCH [11]: 19.9 pg; MCHC [11]: 32.4%; Mono [11]: 2.4%; Plat [11]: 136.3 x10_4/uL; RBC [11]: 662 x10_4/ul; Ret [11]: 4.6%; WBC [11]: 108.6 x10_2/uL; APTT [12]: 26.4 s; Bas [12]: 0%; Eos [12]: 1%; Fbg [12]: 302.2 mg/dL; Hb [12]: 14.1 g/dL; Ht [12]: 42.1%; Lym [12]: 83.2%; MCHC [12]: 33.4%; MCV [12]: 60.3 fL; Mono [12]: 2.5%; Neu [12]: 12%; Plat [12]: 111 x10_4/uL; RBC [12]: 698.8 x10_4/ul; Ret [12]: 3.1%; WBC [12]: 122.2 x10_2/uL; APTT [13]: 24.7 s; Bas [13]: 0%; Eos [13]: 1.2%; Fbg [13]: 311.6 mg/dL; Ht [13]: 42.3%; Lym [13]: 83.2%; MCH [13]: 19.1 pg; MCHC [13]: 35.1%; MCV [13]: 54.4 fL; Mono [13]: 2.6%; Neu [13]: 12%; Plat [13]: 105.6 x10_4/uL; RBC [13]: 777.8 x10_4/ul; Ret [13]: 1.7%; WBC [13]: 94.6 x10_2/uL; KIDNEY_L [11]: 1 g; KIDNEY_R [11]: 1 g; KIDNEY_TOTAL [11]: 2 g; KIDNEY_L [12]: 1.2 g; KIDNEY_R [12]: 1.2 g; KIDNEY_TOTAL [12]: 2.4 g; KIDNEY_L [13]: 1.3 g; KIDNEY_R [13]: 1.3 g; KIDNEY_TOTAL [13]: 2.6 g; LIVER [11]: 11.2 g; LIVER [13]: 13.5 g; ALP [14]: 1760.4 IU/L; ALT [14]: 40.6 IU/L; AST [14]: 75 IU/L; BUN [14]: 16.4 mg/dL; CRE [14]: 0.2 mg/dL; Ca [14]: 11 mg/dL; DBIL [14]: 0 mg/dL; IP [14]: 7.5 mg/dL; K [14]: 4.6 meq/L; LDH [14]: 138.8 IU/L; Na [14]: 140.2 meq/L; PL [14]: 138.2 mg/dL; RALB [14]: 3 g/dL; TBIL [14]: 0.008 mg/dL; TG [14]: 94.6 mg/dL; TP [14]: 5.6 g/dL; gamma-GTP [14]: 2.2 IU/L; ALP [15]: 1603 IU/L; ALT [15]: 38 IU/L; AST [15]: 80.4 IU/L; BUN [15]: 18 mg/dL; CRE [15]: 0.2 mg/dL; DBIL [15]: 0.004 mg/dL; GLC [15]: 171.6 mg/dL; IP [15]: 6.4 mg/dL; K [15]: 4.5 meq/L; LDH [15]: 160 IU/L; PL [15]: 130.2 mg/dL; RALB [15]: 3.1 g/dL; TBIL [15]: 0.01 mg/dL; TC [15]: 64.8 mg/dL; TG [15]: 101.6 mg/dL; TP [15]: 5.9 g/dL; gamma-GTP [15]: 2.6 IU/L; ALP [16]: 1005 IU/L; ALT [16]: 40.4 IU/L; CRE [16]: 0.2 mg/dL; DBIL [16]: 0 mg/dL; GLC [16]: 181 mg/dL; IP [16]: 6 mg/dL; K [16]: 4.2 meq/L; LDH [16]: 140.2 IU/L; PL [16]: 133.8 mg/dL; RALB [16]: 3 g/dL; TBIL [16]: 0.006 mg/dL; TC [16]: 68.8 mg/dL; TG [16]: 102.2 mg/dL; TP [16]: 6 g/dL; gamma-GTP [16]: 2.4 IU/L
